Experimental findings from patent US11780826B2 (Amgen Inc., priority 2017, dated 2023) are described below.

The test system of this experiment is Bovine cardiac myofibrils. Description: In vitro model of dose-dependent myofibril ATPase modulation (AC1.4, pyruvate kinase/lactate dehydrogenase-coupled ATPase assay at pCa25). The format is biochemical. The following applies: concentration at which ATPase activity was 1.4-fold higher than the bottom of the dose curve, mean of a minimum of two independent tests. In outline: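 Bovine cardiac myofibrils, detergent-treated; 0.25-1.0 mg/ml. Buffer: K-PIPES 12 mM, MgCl2 2 mM, DTT 1 mM, BSA 0.1 mg/ml, pH 6.80, 22° C; Ca2+ set by EGTA/CaCl2. ATP 1 mM, NADH/PEP-coupled, A340. 4-parameter fit; n≥2.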
`CNc1ccc(S(C)(=O)=O)cc1C(=O)N1[C@@H](C(=O)N[C@@H](c2ccc(C(F)(F)F)cc2F)C2CC2)C[C@H]2C[C@H]21` [Example 148, (1R,3R,5R)-N-((R)-cyclopropyl(2-fluoro-4-(trifluoromethyl)phenyl)methyl)-2-(2-(methylamino)-5-(methylsulfonyl)benzoyl)-2-azabicyclo[3.1.0]hexane-3-carboxamide]: the AC1.4 is 0.2569 µM.
Next, `Cc1cc(CNC(=O)[C@H]2CCCN2C(=O)[C@H]2CCCN(S(=O)(=O)N3CC(C#N)C3)C2)cc(C)c1F` [Example 445, 1-(((3S)-1-((3-cyano-1-azetidinyl)sulfonyl)-3-piperidinyl)carbonyl)-N-(4-fluoro-3,5-dimethylbenzyl)-D-prolinamide]: 1.823 µM.
In turn, `N#CC1CN(S(=O)(=O)N2CCC[C@H](C(=O)N3CCC[C@@H]3C(=O)NCc3ccc(C(F)(F)F)c(Cl)c3)C2)C1` [Example 38, N-(3-chloro-4-(trifluoromethyl)benzyl)-1-(((3S)-1-((3-cyano-1-azetidinyl)sulfonyl)-3-piperidinyl)carbonyl)-D-prolinamide] gave an AC1.4 of 0.0394 µM.
In turn, `N#CC1CN(S(=O)(=O)N2CCC[C@H](C(=O)N3CCC[C@@H]3C(=O)N[C@@H](c3ccc(S(F)(F)(F)(F)F)cc3)C3CC3)C2)C1` [Example 117, 1-(((3S)-1-((3-cyano-1-azetidinyl)sulfonyl)-3-piperidinyl)carbonyl)-N-((R)-cyclopropyl(4-(pentafluoro-lambda~6~-sulfanyl)phenyl)methyl)-D-prolinamide] displayed an AC1.4 of 0.179 µM.
As for `NS(=O)(=O)c1cccc(C(=O)N2CCC[C@@H]2C(=O)N[C@@H](c2cc(F)c(Cl)cc2F)C2CC2)c1` [Example 224, N-((R)-(4-chloro-2,5-difluorophenyl)(cyclopropyl)methyl)-1-(3-sulfamoylbenzoyl)-D-prolinamide], the AC1.4 is 0.485 µM.
Next, `C[C@@H](NC(=O)[C@H]1CCCN1C(=O)c1cccc(S(=O)(=O)N2CC3(CC3)C2)c1)c1ccc(Cl)cc1` [Example 595, 1-((3-(5-azaspiro[2.3]hex-5-ylsulfonyl)phenyl)carbonyl)-N-((1R)-1-(4-chlorophenyl)ethyl)-D-prolinamide]: 3.5165 µM; `N#CC1CN(S(=O)(=O)N2CCC[C@H](C(=O)N3CCC[C@@H]3C(=O)NCc3ccc(Cl)nc3)C2)C1` [Example 613, N-((6-chloro-3-pyridinyl)methyl)-1-(((3S)-1-((3-cyano-1-azetidinyl)sulfonyl)-3-piperidinyl)carbonyl)-D-prolinamide]: 3.8643 µM.
Turning to `N#CC1CN(S(=O)(=O)N2CCC[C@H](C(=O)N3CCC[C@@H]3C(=O)N[C@H](CC3CC3)c3ccc(C(F)(F)F)cc3)C2)C1` [Example 14, 1-(((3S)-1-((3-cyano-1-azetidinyl)sulfonyl)-3-piperidinyl)carbonyl)-N-((1R)-2-cyclopropyl-1-(4-(trifluoromethyl)phenyl)ethyl)-D-prolinamide], the AC1.4 was 0.0227 µM.
Next, `O=C(N[C@@H](c1cc(F)c(C(F)(F)F)cc1F)C1COC1)[C@H]1C[C@H]2C[C@H]2N1C(=O)c1cc(C(F)(F)F)no1` [Example 826, (1R,3R,5R)-N-((R)-(2,5-difluoro-4-(trifluoromethyl)phenyl)(oxetan-3-yl)methyl)-2-(3-(trifluoromethyl)isoxazole-5-carbonyl)-2-azabicyclo[3.1.0]hexane-3-carboxamide]: 2.628 µM; `C[C@H](NC(=O)[C@H]1CCCN1C(=O)[C@H]1CCCN(S(=O)(=O)N2CC(C#N)C2)C1)c1ccc(C(F)(F)F)cc1` [Example 431, 1-(((3S)-1-((3-cyano-1-azetidinyl)sulfonyl)-3-piperidinyl)carbonyl)-N-((1S)-1-(4-(trifluoromethyl)phenyl)ethyl)-D-prolinamide]: 1.6305 µM; `CC[C@@H](NC(=O)[C@H]1CCCN1C(=O)c1cccc(S(=O)(=O)N2CC(C#N)C2)c1)c1cc(F)cc(F)c1` [Example 124, 1-(3-((3-cyano-1-azetidinyl)sulfonyl)benzoyl)-N-((1R)-1-(3,5-difluorophenyl)propyl)-D-prolinamide]: 0.1998 µM.
As to `COc1cc(Cl)ccc1CNC(=O)[C@H]1CCCN1C(=O)[C@H]1CCCN(S(=O)(=O)N2CC(C#N)C2)C1` [Example 176, N-(4-chloro-2-methoxybenzyl)-1-(((3S)-1-((3-cyano-1-azetidinyl)sulfonyl)-3-piperidinyl)carbonyl)-D-prolinamide], the AC1.4 came to 0.3085 µM.
Regarding `O=C(NCc1ccc(C(F)(F)F)cc1)[C@H]1CCCN1C(=O)[C@H]1CCCN(S(=O)(=O)N2CC(Nc3ccc(F)cc3)C2)C1` [Example 469, 1-(((3S)-1-((3-((4-fluorophenyl)amino)-1-azetidinyl)sulfonyl)-3-piperidinyl)carbonyl)-N-(4-(trifluoromethyl)benzyl)-D-prolinamide], the AC1.4 came to 1.9915 µM.
Next, `CC[C@H](NC(=O)[C@H]1CCCN1C(=O)c1cccc(S(=O)(=O)N(C)C)c1)c1ccc(Cl)c(F)c1` [Example 629, N-((1S)-1-(4-chloro-3-fluorophenyl)propyl)-1-(3-(dimethylsulfamoyl)benzoyl)-D-prolinamide]: 4.051 µM.
Next, `N#C[C@H]1C[C@H](S(=O)(=O)N2CCC[C@H](C(=O)N3CCC[C@@H]3C(=O)NCc3ccc(C(F)(F)F)cc3)C2)C1` [Example 587, 1-(((3S)-1-((trans-3-cyanocyclobutyl)sulfonyl)-3-piperidinyl)carbonyl)-N-(4-(trifluoromethyl)benzyl)-D-prolinamide]: 3.4385 µM; `CC1CCN1S(=O)(=O)N1CCC[C@H](C(=O)N2CCC[C@@H]2C(=O)NCc2ccc(C(F)(F)F)cc2)C1` (stereo partly drawn) [Example 769, (2R)-1-((3S)-1-((2-methylazetidin-1-yl)sulfonyl)piperidine-3-carbonyl)-N-(4-(trifluoromethyl)benzyl)pyrrolidine-2-carboxamide]: 8.078 µM.
Next, `O=C(N[C@@H](c1ccc(C(F)(F)F)cc1F)C1COC1)[C@H]1C[C@H]2C[C@H]2N1C(=O)c1ccnc(C(F)F)c1` [Example 480, (1R,3R,5R)-2-((2-(difluoromethyl)-4-pyridinyl)carbonyl)-N-((R)-(2-fluoro-4-(trifluoromethyl)phenyl)(3-oxetanyl)methyl)-2-azabicyclo[3.1.0]hexane-3-carboxamide]: 2.1525 µM; `CC[C@@H](NC(=O)[C@H]1CCCN1C(=O)c1cccc(S(C)(=O)=O)c1)c1ccc(Cl)c(F)c1` [Example 772, N-((1R)-1-(4-chloro-3-fluorophenyl)propyl)-1-(3-(methylsulfonyl)benzoyl)-D-prolinamide]: 8.175 µM.
Compound `N#C[C@@H]1CCN(S(=O)(=O)N2CCC[C@H](C(=O)N3CCC[C@@H]3C(=O)NCc3ccc(C(F)(F)F)cc3)C2)C1` [Example 319, 1-(((3S)-1-(((3R)-3-cyano-1-pyrrolidinyl)sulfonyl)-3-piperidinyl)carbonyl)-N-(4-(trifluoromethyl)benzyl)-D-prolinamide] returned an AC1.4 of 0.8692 µM.
Next, `O=C(N[C@@H](c1cc(F)c(C(F)(F)F)cc1F)C1CC1)[C@H]1C[C@H]2C[C@H]2N1C(=O)c1cc(C(F)(F)F)ccn1` [Example 289, (1R,3R,5R)-N-((R)-cyclopropyl(2,5-difluoro-4-(trifluoromethyl)phenyl)methyl)-2-((4-(trifluoromethyl)-2-pyridinyl)carbonyl)-2-azabicyclo[3.1.0]hexane-3-carboxamide]: 0.7506 µM; `CN(C)S(=O)(=O)c1cccc(C(=O)N2CCC[C@@H]2C(=O)N[C@@H](c2ccc(C(F)(F)F)cc2F)C2CC2)c1` [Example 58, N-((R)-cyclopropyl(2-fluoro-4-(trifluoromethyl)phenyl)methyl)-1-(3-(dimethylsulfamoyl)benzoyl)-D-prolinamide]: 0.06485 µM; `CN(C)C(=O)C1CN(S(=O)(=O)N2CCC[C@H](C(=O)N3CCC[C@@H]3C(=O)NCc3ccc(C(F)(F)F)cc3)C2)C1` [Example 712, (R)-1-((S)-1-((3-(dimethylcarbamoyl)azetidin-1-yl)sulfonyl)piperidine-3-carbonyl)-N-(4-(trifluoromethyl)benzyl)pyrrolidine-2-carboxamide]: 5.9215 µM.
Next, `CC[C@H](NC(=O)[C@H]1CCCN1C(=O)c1cccc(S(=O)(=O)N2CC(C#N)C2)c1)c1ccc(C(F)(F)F)cc1F` [Example 204, 1-(3-((3-cyano-1-azetidinyl)sulfonyl)benzoyl)-N-((1S)-1-(2-fluoro-4-(trifluoromethyl)phenyl)propyl)-D-prolinamide]: 0.4305 µM; `O=C(N[C@@H](c1cc(F)c(C(F)(F)F)cc1F)[C@H]1C[C@@H](O)C1)[C@H]1C[C@H]2C[C@H]2N1C(=O)c1ccnc(C(F)F)c1` (stereo in doubt) [Example 830, (1R,3R,5R)-N-((R)-(2,5-difluoro-4-(trifluoromethyl)phenyl)((1s,3S)-3-hydroxycyclobutyl)methyl)-2-(2-(difluoromethyl)isonicotinoyl)-2-azabicyclo[3.1.0]hexane-3-carboxamide]: 0.6694 µM; `Cc1cncc(C(=O)N2[C@@H](C(=O)N[C@@H](c3cc(F)c(Cl)cc3F)C3COC3)C[C@H]3C[C@H]32)c1` [Example 695, (1R,3R,5R)-N-((R)-(4-chloro-2,5-difluorophenyl)(3-oxetanyl)methyl)-2-((5-methyl-3-pyridinyl)carbonyl)-2-azabicyclo[3.1.0]hexane-3-carboxamide]: 5.5132 µM.
Take `C[C@H](NC(=O)[C@H]1CCCN1C(=O)[C@H]1CCCN(S(=O)(=O)N2CC(C#N)C2)C1)c1ccc(Cl)cc1` [Example 803, N-((1S)-1-(4-chlorophenyl)ethyl)-1-(((3S)-1-((3-cyano-1-azetidinyl)sulfonyl)-3-piperidinyl)carbonyl)-D-prolinamide]: the AC1.4 worked out at 9.622 µM.
